Test results from PubChem BioAssay AID2060503 (Molecular Pharmacology Branch, DTP, NCI, 2025).

Tested on: 817829-284-R-J1-PDC complex spheroids, viability
Assay: Anticancer human tumor 817829-284-R-J1-PDC patient-derived colon adenocarcinoma cell line growth inhibition [GQUAD]
Settings: for IC50: curve of first compound; for viability, T/C: stronger effect = lower value
Outline: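 Multi-cell-type spheroids of tumor cells with HUVEC and mesenchymal stem cells, treated with drug combinations. Concentrations descend in half-log steps from near clinical Cmax, or from 10 microM where Cmax is unknown; viability read-out.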

[1] = second compound 0.0316 µM, first compound 0.0316 µM
[2] = second compound 0.0316 µM, first compound 0.1 µM
[3] = second compound 0.0316 µM, first compound 0.316 µM
[4] = second compound 0.0316 µM, first compound 1 µM
[5] = second compound 0.0316 µM, first compound 3.16 µM
[6] = second compound 0.0316 µM, first compound 10 µM
[7] = second compound 0.1 µM, first compound 0.0316 µM
[8] = second compound 0.1 µM, first compound 0.1 µM
[9] = second compound 0.1 µM, first compound 0.316 µM
[10] = second compound 0.1 µM, first compound 1 µM
[11] = second compound 0.1 µM, first compound 3.16 µM
[12] = second compound 0.1 µM, first compound 10 µM
[13] = second compound 0.316 µM, first compound 0.0316 µM
[14] = second compound 0.316 µM, first compound 0.1 µM
[15] = second compound 0.316 µM, first compound 0.316 µM
[16] = second compound 0.316 µM, first compound 1 µM
[17] = second compound 0.316 µM, first compound 3.16 µM
[18] = second compound 0.316 µM, first compound 10 µM
[19] = second compound 1 µM, first compound 0.0316 µM
[20] = second compound 1 µM, first compound 0.1 µM
[21] = second compound 1 µM, first compound 0.316 µM
[22] = second compound 1 µM, first compound 1 µM
[23] = second compound 1 µM, first compound 3.16 µM
[24] = second compound 1 µM, first compound 10 µM
[25] = second compound 3.16 µM, first compound 0.0316 µM
[26] = second compound 3.16 µM, first compound 0.1 µM
[27] = second compound 3.16 µM, first compound 0.316 µM
[28] = second compound 3.16 µM, first compound 1 µM
[29] = second compound 3.16 µM, first compound 3.16 µM
[30] = second compound 3.16 µM, first compound 10 µM
[31] = second compound 10 µM, first compound 0.0316 µM
[32] = second compound 10 µM, first compound 0.1 µM
[33] = second compound 10 µM, first compound 0.316 µM
[34] = second compound 10 µM, first compound 1 µM
[35] = second compound 10 µM, first compound 3.16 µM
[36] = second compound 10 µM, first compound 10 µM
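Also: spheroids exposed to agents for 7 days before readout.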
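For viability, T/C in this document: percent viability relative to DMSO vehicle control taken as 100%.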

With `COc1cccc2c1C(=O)c1c(O)c3c(c(O)c1C2=O)CC(O)(C(=O)CO)CC3OC1CC(N)C(O)C(C)O1` (stereo not drawn) + Cc1[nH]c2ccc(F)cc2c1-c1nc2c3cccnc3c3ncccc3c2[nH]1 the IC50 (second compound 0.0316 µM) was 88.3 nM, the IC50 (second compound 0.1 µM) was 94.3 nM and the IC50 (second compound 0.316 µM) was 98.7 nM. The IC50 (second compound 1 µM) was 84.4 nM, the IC50 (second compound 3.16 µM) was 64 nM and the IC50 (second compound 10 µM) was under 31.6 nM. It also gave a viability, T/C [1] of 106%, a viability, T/C [2] of 31.4% and a viability, T/C [3] of 35.2%. It also gave a viability, T/C [4] of 9.62%, a viability, T/C [5] of 0.98% and a viability, T/C [6] of 0.2%. It also gave a viability, T/C [7] of 79.8%, a viability, T/C [8] of 46.1% and a viability, T/C [9] of 29.7%. For the same molecule, the viability, T/C [10] was 14%, the viability, T/C [11] was 0.63% and the viability, T/C [12] was 0.15%. The viability, T/C [13] was 86.2%, the viability, T/C [14] was 44.8% and the viability, T/C [15] was 32.1%. It also gave a viability, T/C [16] of 14.2%, a viability, T/C [17] of 0.67% and a viability, T/C [18] of 0.16%. For the same molecule, the viability, T/C [19] was 80.5%, the viability, T/C [20] was 38% and the viability, T/C [21] was 31.3%. The viability, T/C [22] was 13.7%, the viability, T/C [23] was 1% and the viability, T/C [24] was 0.19%. The viability, T/C [25] was 80.9%, the viability, T/C [26] was 26.3% and the viability, T/C [27] was 18.9%. The viability, T/C [28] was 7.18%, the viability, T/C [29] was 0.69% and the viability, T/C [30] was 0.27%. For the same molecule, the viability, T/C [31] was 22.1%, the viability, T/C [32] was 12.8% and the viability, T/C [33] was 11.3%. It also gave a viability, T/C [34] of 3.41%, a viability, T/C [35] of 0.48% and a viability, T/C [36] of 0.46%.
`Cc1cccc(N(C)C(=O)C2C(O)CCN2c2nc(C)cc(C(F)(F)F)c2C#N)c1` (stereo not drawn) + Cc1[nH]c2ccc(F)cc2c1-c1nc2c3cccnc3c3ncccc3c2[nH]1 was tested, and the IC50 (second compound 0.0316 µM) was over 10000 nM, the IC50 (second compound 0.1 µM) was over 10000 nM and the IC50 (second compound 0.316 µM) was over 10000 nM. For the same molecule, the IC50 (second compound 1 µM) was over 10000 nM, the IC50 (second compound 3.16 µM) was over 10000 nM and the IC50 (second compound 10 µM) was over 10000 nM. It also gave a viability, T/C [1] of 103%, a viability, T/C [2] of 86.2% and a viability, T/C [3] of 99.9%. It also gave a viability, T/C [4] of 78%, a viability, T/C [5] of 97.6% and a viability, T/C [6] of 95.3%. For the same molecule, the viability, T/C [7] was 78.9%, the viability, T/C [8] was 97.7% and the viability, T/C [9] was 89.7%. It also gave a viability, T/C [10] of 102%, a viability, T/C [11] of 101% and a viability, T/C [12] of 105%. The viability, T/C [13] was 90.9%, the viability, T/C [14] was 116% and the viability, T/C [15] was 99.3%. The viability, T/C [16] was 115%, the viability, T/C [17] was 111% and the viability, T/C [18] was 100%. It also gave a viability, T/C [19] of 96.6%, a viability, T/C [20] of 103% and a viability, T/C [21] of 106%. The viability, T/C [22] was 98.7%, the viability, T/C [23] was 100% and the viability, T/C [24] was 90%. The viability, T/C [25] was 94.9%, the viability, T/C [26] was 96.1% and the viability, T/C [27] was 82.5%. For the same molecule, the viability, T/C [28] was 99.2%, the viability, T/C [29] was 98.2% and the viability, T/C [30] was 96.7%. The viability, T/C [31] was 83.3%, the viability, T/C [32] was 96.4% and the viability, T/C [33] was 96.4%. For the same molecule, the viability, T/C [34] was 55.3%, the viability, T/C [35] was 82.6% and the viability, T/C [36] was 63.2%.
For `Cn1ncnc1[C@H]1c2n[nH]c(=O)c3cc(F)cc(c23)N[C@@H]1c1ccc(F)cc1` + Cc1[nH]c2ccc(F)cc2c1-c1nc2c3cccnc3c3ncccc3c2[nH]1, the IC50 (second compound 0.0316 µM) was over 316 nM, the IC50 (second compound 0.1 µM) was over 316 nM and the IC50 (second compound 0.316 µM) was over 316 nM. For the same molecule, the IC50 (second compound 1 µM) was over 316 nM, the IC50 (second compound 3.16 µM) was 148 nM and the IC50 (second compound 10 µM) was 79.9 nM. The viability, T/C (second compound 0.0316 µM, first compound 0.000999 µM) was 93.8%, the viability, T/C (second compound 0.0316 µM, first compound 0.00316 µM) was 88.8% and the viability, T/C (second compound 0.0316 µM, first compound 0.00999 µM) was 95.5%. For the same molecule, the viability, T/C [1] was 82.2%, the viability, T/C (second compound 0.0316 µM, first compound 0.0999 µM) was 96.1% and the viability, T/C [3] was 74.7%. The viability, T/C (second compound 0.1 µM, first compound 0.000999 µM) was 93.5%, the viability, T/C (second compound 0.1 µM, first compound 0.00316 µM) was 109% and the viability, T/C (second compound 0.1 µM, first compound 0.00999 µM) was 94.5%. The viability, T/C [7] was 106%, the viability, T/C (second compound 0.1 µM, first compound 0.0999 µM) was 89.2% and the viability, T/C [9] was 76.3%. It also gave a viability, T/C (second compound 0.316 µM, first compound 0.000999 µM) of 83.9%, a viability, T/C (second compound 0.316 µM, first compound 0.00316 µM) of 115% and a viability, T/C (second compound 0.316 µM, first compound 0.00999 µM) of 102%. It also gave a viability, T/C [13] of 105%, a viability, T/C (second compound 0.316 µM, first compound 0.0999 µM) of 86.5% and a viability, T/C [15] of 69.6%. For the same molecule, the viability, T/C (second compound 1 µM, first compound 0.000999 µM) was 82.6%, the viability, T/C (second compound 1 µM, first compound 0.00316 µM) was 108% and the viability, T/C (second compound 1 µM, first compound 0.00999 µM) was 116%. For the same molecule, the viability, T/C [19] was 103%, the viability, T/C (second compound 1 µM, first compound 0.0999 µM) was 80% and the viability, T/C [21] was 68.4%. It also gave a viability, T/C (second compound 3.16 µM, first compound 0.000999 µM) of 89.1%, a viability, T/C (second compound 3.16 µM, first compound 0.00316 µM) of 90.6% and a viability, T/C (second compound 3.16 µM, first compound 0.00999 µM) of 87.5%. For the same molecule, the viability, T/C [25] was 83.2%, the viability, T/C (second compound 3.16 µM, first compound 0.0999 µM) was 54.6% and the viability, T/C [27] was 41.1%. The viability, T/C (second compound 10 µM, first compound 0.000999 µM) was 69.3%, the viability, T/C (second compound 10 µM, first compound 0.00316 µM) was 73.9% and the viability, T/C (second compound 10 µM, first compound 0.00999 µM) was 76.3%. It also gave a viability, T/C [31] of 75.8%, a viability, T/C (second compound 10 µM, first compound 0.0999 µM) of 44.3% and a viability, T/C [33] of 24.1%.
Molecule `Nc1ccn(C2OC(CO)C(O)C2(F)F)c(=O)n1` (stereo not drawn) + Cc1[nH]c2ccc(F)cc2c1-c1nc2c3cccnc3c3ncccc3c2[nH]1 has an IC50 (second compound 0.0316 µM) of under 31.6 nM, an IC50 (second compound 0.1 µM) of under 31.6 nM and an IC50 (second compound 0.316 µM) of under 31.6 nM. For the same molecule, the IC50 (second compound 1 µM) was under 31.6 nM, the IC50 (second compound 3.16 µM) was under 31.6 nM and the IC50 (second compound 10 µM) was under 31.6 nM. It also gave a viability, T/C [1] of 20.2%, a viability, T/C [2] of 6.9% and a viability, T/C [3] of 6.88%. The viability, T/C [4] was 6.74%, the viability, T/C [5] was 5.53% and the viability, T/C [6] was 3.68%. It also gave a viability, T/C [7] of 14.1%, a viability, T/C [8] of 8.53% and a viability, T/C [9] of 7.09%. It also gave a viability, T/C [10] of 6.66%, a viability, T/C [11] of 4.94% and a viability, T/C [12] of 3.89%. For the same molecule, the viability, T/C [13] was 13.8%, the viability, T/C [14] was 9.71% and the viability, T/C [15] was 6.14%. It also gave a viability, T/C [16] of 6.13%, a viability, T/C [17] of 6.19% and a viability, T/C [18] of 3.54%. It also gave a viability, T/C [19] of 20.8%, a viability, T/C [20] of 8.09% and a viability, T/C [21] of 5.47%. The viability, T/C [22] was 5.85%, the viability, T/C [23] was 5.57% and the viability, T/C [24] was 3.28%. The viability, T/C [25] was 12.7%, the viability, T/C [26] was 7.63% and the viability, T/C [27] was 3.35%. It also gave a viability, T/C [28] of 3.87%, a viability, T/C [29] of 3.33% and a viability, T/C [30] of 2.74%. For the same molecule, the viability, T/C [31] was 7.76%, the viability, T/C [32] was 3.83% and the viability, T/C [33] was 2.59%. It also gave a viability, T/C [34] of 2.55%, a viability, T/C [35] of 2.74% and a viability, T/C [36] of 2.11%.
